Read-outs that look alike come from different tables or passages of the source.
What was measured:
JURKAT human T-cell line = test: Secondary assay: cell proliferation WST-1, Jurkat; type: cell-based; details: 48 h, read-out: Cell Proliferation Inhibition WST-1 (IC50 unless otherwise specified) Jurkat
[1] = system: K11 HPV E7 transformed human keratinocyte line; test: Secondary assay: cell proliferation WST-1, K11; type: cell-based; details: read-out: Cell Proliferation Inhibition WST-1 (IC50 unless otherwise specified) K11
[2] = system: NHEK-Ad primary human adult keratinocyte line; test: Secondary assay: cell proliferation WST-1, NHEK-Ad; type: cell-based; details: 48 h, read-out: Cell Proliferation Inhibition WST-1 (IC50 unless otherwise specified) NHEK-AD
Experimental: Compounds with HDAC inhibition activity, as determined using the primary assay, were subsequently evaluated using secondary cell-based assays. The following cell lines were used:
NHEK-Ad—Primary human adult keratinocyte line (Cambrex Corp., East Rutherford, N.J., USA).
Cells were plated in 96-well plates at 3-10×10^3 cells/well in 100 μL of culture medium. The following day, different concentrations of candidate compounds were added and the cells incubated at 37° C. for 48 h. Subsequently, 10 μL/well of WST-1 reagent was added and the cells reincubated for 1 hour. After the incubation time, absorbance was measured.
WST-1 is a tetrazolium salt which is cleaved to formazan dye by cellular enzymes. An expansion in the number of viable cells results in an increase in the overall activity of mitochondrial dehydrogenases in the sample. This augmentation in the enzyme activity leads to an increase in the amount of formazan dye formed, which directly correlates to the number of metabolically active cells in the culture. The formazan dye produced is quantified by a scanning multiwell spectrophotometer by measuring the absorbance of the dye solution at 450 nm wavelength (reference wavelength 690 nm).
Percent activity (% activity) in reducing the number of viable cells was calculated for each test compound as: % activity={(S^C−B)/(S^o−B)}×100 wherein S^C denotes signal measured in the presence of the compound being tested, S^o denotes signal measured in the absence of the compound being tested, and B denotes the background signal measured in blank wells containing medium only.
IC50 values were calculated using the software package Prism 3.0 (GraphPad software Inc., San Diego, Calif.), setting top value at 100 and bottom value at 0.

HeLa cells = test: Secondary assay: cell proliferation WST-1, HeLa; type: cell-based; details: Homo sapiens, 48 h, read-out: Cell Proliferation Inhibition WST-1 (IC50 unless otherwise specified) HeLa
Method in brief: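 Absorbance at 450 nm (reference 690 nm); % activity vs untreated after blank subtraction, IC50 fitted with top 100 and bottom 0.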

human HDAC2 = molecular target: T1, human HDAC2 (Homo sapiens, UniProt Q92769); test: Primary assay: deacetylase activity, recombinantly produced HDAC2; type: biochemical; details: recombinant HDAC2; read-out: HDAC Inhibition (IC50 unless otherwise specified) HDAC2
T1 construct: Full length human HDAC2 was subcloned; Flag (C); His6 (from pAcHLT-A vector; purified on Ni-NTA) (N); made in house; host or cells: SF9 insect cells (baculovirus)
Description: (§1) Briefly, this assay relies on the release of radioactive acetate from a radioactively labelled histone fragment by the action of HDAC enzyme. Test compounds, which inhibit HDAC, reduce the yield of radioactive acetate. Signal (e.g., scintillation counts) measured in the presence and absence of a test compound provide an indication of that compound's ability to inhibit HDAC activity. Decreased activity indicates increased inhibition by the test compound.
(§2) The histone fragment was an N-terminal sequence from histone H4, and it was labelled with radioactively labelled acetyl groups using tritiated acetylcoenzyme A (coA) in conjunction with an enzyme which is the histone acetyltransferase domain of the transcriptional coactivator p300. […] The acetylated peptide was then separated from free acetyl coA by size exclusion chromatography on Sephadex G-15 (Sigma G-15-120), using distilled H2O as the mobile phase.
(§3) After purification of the radiolabelled histone fragment, it was incubated with a source of HDAC (e.g., an extract of HeLa cells (a rich source of HDAC), recombinantly produced HDAC1 or HDAC2) and any released acetate was extracted into an organic phase and quantitatively determined using scintillation counting. By including a test compound with the source of HDAC, that compound's ability to inhibit the HDAC was determined.
(§4) Amplification of recombinant viruses was performed according to the Pharmingen Instruction Manual.
(§5) For protein production, 2×10^7 cells were infected with the appropriate recombinant virus for 3 days. Cells were then harvested and spun at 3,000 rpm for 5 minutes. They were then washed twice in PBS and resuspended in 2 pellet volumes of lysis buffer (25 mM HEPES pH 7.9, 0.1 mM EDTA, 400 mM KCl, 10% glycerol, 0.1% NP-40, 1 mM AEBSF). Resuspended cells were frozen on dry ice and thawed at 37° C. 3 times and centrifuged for 10 minutes at 14,000 rpm. […] Incubation was carried out at 4° C. for 1 hour on a rotating wheel. The slurry was then centrifuged at 500 g for 5 minutes. Beads were washed twice in 1 ml of wash buffer (25 mM HEPES pH7.9, 0.1 mM EDTA, 150 mM KCl, 10% glycerol, 0.1% NP-40, 1 mM AEBSF). Protein was eluted 3 times in 300 μl elution buffer (25 mM HEPES pH 7.9, 0.1 mM EDTA, 250 mM KCl, 10% glycerol, 0.1% NP-40, 1 mM AEBSF) containing increasing concentrations of imidazole: 0.2 M, 0.5 M and 1 M. Each elution was performed for 5 minutes at room temperature. Eluted protein was kept in 50% glycerol at −70° C.
(§6) A source of HDAC (e.g., 2 μL of crude HeLa extract, 5 μL of HDAC1 or HDAC2; in elution buffer, as above) was incubated with 3 μL of radioactively labelled peptide along with appropriate dilutions of candidate compounds (1.5 μL) in a total volume of 150 μL of buffer (20 mM Tris pH 7.4, 10% glycerol). The reaction was carried out at 37° C. for one hour, after which the reaction was stopped by adding 20 μL of 1 M HCl/0.4 M sodium acetate. […] Radioactivity was measured using a Tri-Carb 2100TR Liquid Scintillation Analyzer (Packard).
(§7) Percent activity (% activity) for each test compound was calculated as: % activity={(S^C−B)/(S^o−B)}×100 wherein S^C denotes signal measured in the presence of enzyme and the compound being tested, S^o denotes signal measured in the presence of enzyme but in the absence of the compound being tested, and B denotes the background signal measured in the absence of both enzyme and compound being tested.

HDAC (HeLa cell extract) = test: Primary assay: deacetylase activity, HeLa cell extract as source of HDAC; type: biochemical, human
Method in brief: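 Crude HeLa extract (freeze-thaw in 60 mM TrisCl pH 8.0, 450 mM NaCl, 30% glycerol) was incubated 1 h at 37° C with a [³H]acetyl-labelled histone H4 N-terminal peptide in 20 mM Tris pH 7.4, 10% glycerol.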

human HDAC1 = molecular target: T2, human HDAC1 (Homo sapiens, UniProt Q13547); test: Primary assay: deacetylase activity, recombinantly produced HDAC1; type: biochemical; details: recombinant HDAC1; read-out: HDAC Inhibition (IC50 unless otherwise specified) HDAC1
T2 construct: Full length human HDAC1 was cloned by PCR; Flag (C); His6 (from pAcHLT vector; purified on Ni-NTA) (N); made in house; host or cells: SF9 insect cells (baculovirus)
Description: as §1, §2, §3
Full length human HDAC1 was cloned by PCR using a λgt11 Jurkat cDNA library (Clontech-HL5012b). The amplified fragment was inserted into the EcoRI-Sall sites of pFlag-CTC vector (Sigma-E5394), in frame with the Flag tag. A second PCR was carried out in order to amplify a fragment containing the HDAC1 sequence fused to the Flag tag.
as §4, §5, §6, §7

[3] = Homo sapiens, Keratinocyte, 48 h
[4] = HeLa cell extract, read-out: HDAC Inhibition (IC50 unless otherwise specified) HeLa
[5] = Homo sapiens, Keratinocyte, NHEK-AD

T2 sequence (Q13547 whole entry): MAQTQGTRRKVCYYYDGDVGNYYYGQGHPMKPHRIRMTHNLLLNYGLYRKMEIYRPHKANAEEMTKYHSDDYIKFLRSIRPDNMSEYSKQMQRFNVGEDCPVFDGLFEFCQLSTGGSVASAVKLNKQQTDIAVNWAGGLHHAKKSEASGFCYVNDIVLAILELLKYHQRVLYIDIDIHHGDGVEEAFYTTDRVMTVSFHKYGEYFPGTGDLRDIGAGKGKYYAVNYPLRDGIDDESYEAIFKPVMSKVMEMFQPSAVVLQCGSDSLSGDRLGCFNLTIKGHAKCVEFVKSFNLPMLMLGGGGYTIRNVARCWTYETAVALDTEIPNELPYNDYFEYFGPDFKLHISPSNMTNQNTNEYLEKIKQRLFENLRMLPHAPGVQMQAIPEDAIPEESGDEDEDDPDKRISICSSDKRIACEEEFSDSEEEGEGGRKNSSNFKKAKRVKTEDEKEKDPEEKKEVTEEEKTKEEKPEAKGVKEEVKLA
T1 sequence (Q92769 whole entry): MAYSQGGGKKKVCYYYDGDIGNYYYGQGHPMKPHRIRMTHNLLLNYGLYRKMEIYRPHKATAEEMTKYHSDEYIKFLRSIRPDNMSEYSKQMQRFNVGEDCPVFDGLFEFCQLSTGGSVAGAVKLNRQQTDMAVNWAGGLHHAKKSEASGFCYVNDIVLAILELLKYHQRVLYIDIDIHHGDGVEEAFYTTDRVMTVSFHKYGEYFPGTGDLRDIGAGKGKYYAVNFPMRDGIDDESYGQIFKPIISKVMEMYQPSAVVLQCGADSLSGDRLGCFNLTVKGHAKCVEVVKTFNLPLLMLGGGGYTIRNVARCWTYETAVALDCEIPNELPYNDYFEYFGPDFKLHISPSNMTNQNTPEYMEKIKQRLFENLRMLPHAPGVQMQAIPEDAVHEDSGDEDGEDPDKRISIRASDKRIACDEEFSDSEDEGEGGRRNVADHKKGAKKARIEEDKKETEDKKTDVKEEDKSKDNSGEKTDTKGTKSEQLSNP

Row | IC50 (human HDAC2) [nM] | IC50 (human HDAC1) [nM] | melting point [°C] | Structure (SMILES) | IC50 (HeLa cells) [µM] | IC50 (JURKAT human T-cell line; Homo sapiens) [nM] | IC50 [1, 3] [µM] | IC50 (HDAC (HeLa cell extract); [4]) [nM] | IC50 [2, 5] [nM] | further results
1 | – | – | – | Nc1ccccc1NC(=O)c1ccc(CNC(=O)OCc2cccnc2)cc1 [MS-275, reference compound] | – | – | – | – | – | IC50 (JURKAT human T-cell line): 365 nM; IC50 ([1]; K11, 48 h): 9.16 µM; IC50 ([2]; NHEK-AD): 3100 nM
2 | – | – | – | O=C(/C=C/C#Cc1cccc(NS(=O)(=O)c2ccccc2)c1)NO [Oxamflatin, (2E)-5-[3-[(phenylsulfonyl)amino]phenyl]-pent-2-en-4-ynohydroxamic acid, reference compound] | 1.1 | 260 | 4.56 | – | – | IC50 ([2]; Homo sapiens, Keratinocyte): 3530 nM
3 | 56 | 25 | 222 to 224 | O=C(/C=C/C=C/c1ccc(-c2ccccc2)cc1)NCCCCCC(=O)NO [PX105848, (2E,4E)-5-Biphenyl-4-yl-penta-2,4-dienoic acid (5-hydroxycarbamoyl-pentyl)-amide] | 4.3 | – | – | 22 | – | IC50 (HDAC (HeLa cell extract); comparative tables, HeLa cell extract, read-out: HeLa IC50): 22 nM
4 | 63 | 50 | 158 to 160 | O=C(/C=C\C=C\c1ccc(Cl)cc1)NCCCCCC(=O)NO [PX105849, (2Z,4E)-5-(4-Chlorophenyl)penta-2,4-dienoic acid (5-hydroxycarbamoylpentyl)-amide] | 5.3 | – | – | 29 | – | –
5 | 75 | 25 | 164 to 168 | O=C(/C=C/C=C/c1ccc(Cl)cc1)NCCCCCC(=O)NO [PX105850, (2E,4E)-5-(4-Chlorophenyl)penta-2,4-dienoic acid (5-hydroxycarbamoylpentyl)-amide] | 6.3 | – | – | 28 | – | –
6 | 50 | 12 | 160 to 162 | O=C(/C=C/C=C/c1ccccc1)NCCCCCCCC(=O)NO [PX105851] | 4.2 | – | – | 18 | – | IC50 (HDAC (HeLa cell extract); comparative tables, HeLa cell extract, no unit in cell, read-out: HeLa IC50): 18 nM
7 | – | – | – | O=C(/C=C/c1ccc2ccccc2c1)NCCCCCC(=O)NO [PX116232, E-N-(5-Hydroxycarbamoylpentyl)-3-naphthalen-2-yl-acrylamide] | 18.3 | 7300 | 2.7 | 10 | 1700 | –
8 | – | – | – | O=C(C=C1c2ccccc2-c2ccccc21)NCCCCCC(=O)NO [PX117456, 6-(2-Fluoren-9-ylideneacetylamino)hexanoic acid hydroxyamide] | 0.65 | 180 | 0.74 | – | – | IC50 (HDAC (HeLa cell extract); read-out: HDAC Inhibition (IC50 unless otherwise specified) HeLa): 3 nM; IC50 ([2]; Homo sapiens, Keratinocyte): 250 nM
9 | – | – | – | CC(/C=C/C(=O)NO)=C\[C@@H](C)C(=O)c1ccc(N(C)C)cc1 [TSA, trichostatin A, reference compound] | 0.35 | 42 | 0.38 | – | – | IC50 ([2]; Homo sapiens, Keratinocyte): 200 nM

Row | Structure (SMILES) | IC50 (human HDAC2) [nM] | IC50 (human HDAC1) [nM] | melting point [°C] | IC50 (HeLa cells) [µM] | IC50 (JURKAT human T-cell line; Homo sapiens) [nM] | IC50 [1, 3] [µM] | IC50 (HDAC (HeLa cell extract); [4]) [nM] | IC50 [2, 5] [nM] | further results
10 | O=C(/C=C/C=C/c1ccccc1)NCCCCCC(=O)NO [PX105553, 4-(2E)(4E)-5-Phenyl-penta-2,4-dienoic acid (5-hydroxycarbamoyl-pentyl)-amide] | 47 | 38 | – | 5.7 | 3700 | 7.5 | 18 | 2400 | –
11 | O=C(/C=C/c1c[nH]c2ccccc12)NCCCCCC(=O)NO [PX116220, N-(5-Hydroxycarbamoyl-pentyl)-3-(1-N-indol-3-yl)-acrylamide] | – | – | 92 to 94 | 3.7 | 4500 | 9.5 | 6.3 | 2400 | –
12 | O=C(CCCCCCC(=O)Nc1ccc2ccccc2c1)NO [PX116223, Octanedioic acid hydroxyamide naphthalen-2-ylamide] | – | – | 142.5 to 144 | < 0.31 | 220 | 1.7 | < 12.5 | 1300 | –

Source: patent publication US7569724B2, “Carbamic acid compounds comprising an amide linkage as HDAC inhibitors” (Topotarget UK Limited, priority 2000, dated 2009)
